Measured values taken from US12291503B2, “Crystalline form of compound, method for preparing the same, pharmaceutical composition and use” (Beijing Konruns Pharmaceutical Co., Ltd., priority 2019, dated 2025).
Read-outs that look alike come from different tables or passages of the source.

What was measured:
[1] = Accelerated stability test of the crystalline form AB (40±2° C., RH 75%±5%, vials sealed and open); type: physicochemical; settings: for Purity (HPLC method) Open / Purity (HPLC method) Sealed: 40±2° C., RH 75%±5%
Procedure: Accelerated stability test: the compound 1 was contained in vials, and these vials in sealed and open manners respectively were placed in closed containers (desiccators) with a relative humidity of 75%±5%; the desiccators were placed in an incubator at a temperature of 40±2° C. for 7 months; small samples were taken out at 0, 1, 2, 7 months respectively for detection.

AXL = biological target: T1, AXL (Homo sapiens, UniProt P30530); assay: IC50 against AXL; type: biochemical
T1 sequence (P30530 26-894): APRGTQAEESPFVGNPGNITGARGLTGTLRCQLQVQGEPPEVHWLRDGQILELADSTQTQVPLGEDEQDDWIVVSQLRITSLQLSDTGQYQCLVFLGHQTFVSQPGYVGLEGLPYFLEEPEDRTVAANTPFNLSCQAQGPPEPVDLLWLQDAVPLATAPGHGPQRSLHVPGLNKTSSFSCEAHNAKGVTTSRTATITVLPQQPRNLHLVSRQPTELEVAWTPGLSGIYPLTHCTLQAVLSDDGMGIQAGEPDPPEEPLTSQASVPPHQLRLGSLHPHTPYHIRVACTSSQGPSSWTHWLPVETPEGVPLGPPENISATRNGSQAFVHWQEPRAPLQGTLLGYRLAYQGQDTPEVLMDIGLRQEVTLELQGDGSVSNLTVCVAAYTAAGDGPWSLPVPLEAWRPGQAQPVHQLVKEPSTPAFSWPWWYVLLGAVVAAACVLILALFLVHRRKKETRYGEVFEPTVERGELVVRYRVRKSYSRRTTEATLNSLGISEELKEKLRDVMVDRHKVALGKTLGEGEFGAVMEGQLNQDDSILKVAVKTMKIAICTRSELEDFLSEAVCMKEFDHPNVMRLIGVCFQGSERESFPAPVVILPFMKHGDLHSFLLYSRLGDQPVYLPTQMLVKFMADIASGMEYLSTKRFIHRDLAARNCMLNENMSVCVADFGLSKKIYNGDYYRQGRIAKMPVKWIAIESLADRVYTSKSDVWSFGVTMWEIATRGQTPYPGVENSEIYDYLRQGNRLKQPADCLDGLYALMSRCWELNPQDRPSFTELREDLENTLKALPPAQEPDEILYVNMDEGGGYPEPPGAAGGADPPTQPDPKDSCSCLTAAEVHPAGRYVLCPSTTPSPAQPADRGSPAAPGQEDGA

VEGF-R2 = VEGF-R2 (Homo sapiens, UniProt P35968); assay: IC50 against VEGF-R2; type: biochemical
Sequence of VEGF-R2 (P35968 20-1356): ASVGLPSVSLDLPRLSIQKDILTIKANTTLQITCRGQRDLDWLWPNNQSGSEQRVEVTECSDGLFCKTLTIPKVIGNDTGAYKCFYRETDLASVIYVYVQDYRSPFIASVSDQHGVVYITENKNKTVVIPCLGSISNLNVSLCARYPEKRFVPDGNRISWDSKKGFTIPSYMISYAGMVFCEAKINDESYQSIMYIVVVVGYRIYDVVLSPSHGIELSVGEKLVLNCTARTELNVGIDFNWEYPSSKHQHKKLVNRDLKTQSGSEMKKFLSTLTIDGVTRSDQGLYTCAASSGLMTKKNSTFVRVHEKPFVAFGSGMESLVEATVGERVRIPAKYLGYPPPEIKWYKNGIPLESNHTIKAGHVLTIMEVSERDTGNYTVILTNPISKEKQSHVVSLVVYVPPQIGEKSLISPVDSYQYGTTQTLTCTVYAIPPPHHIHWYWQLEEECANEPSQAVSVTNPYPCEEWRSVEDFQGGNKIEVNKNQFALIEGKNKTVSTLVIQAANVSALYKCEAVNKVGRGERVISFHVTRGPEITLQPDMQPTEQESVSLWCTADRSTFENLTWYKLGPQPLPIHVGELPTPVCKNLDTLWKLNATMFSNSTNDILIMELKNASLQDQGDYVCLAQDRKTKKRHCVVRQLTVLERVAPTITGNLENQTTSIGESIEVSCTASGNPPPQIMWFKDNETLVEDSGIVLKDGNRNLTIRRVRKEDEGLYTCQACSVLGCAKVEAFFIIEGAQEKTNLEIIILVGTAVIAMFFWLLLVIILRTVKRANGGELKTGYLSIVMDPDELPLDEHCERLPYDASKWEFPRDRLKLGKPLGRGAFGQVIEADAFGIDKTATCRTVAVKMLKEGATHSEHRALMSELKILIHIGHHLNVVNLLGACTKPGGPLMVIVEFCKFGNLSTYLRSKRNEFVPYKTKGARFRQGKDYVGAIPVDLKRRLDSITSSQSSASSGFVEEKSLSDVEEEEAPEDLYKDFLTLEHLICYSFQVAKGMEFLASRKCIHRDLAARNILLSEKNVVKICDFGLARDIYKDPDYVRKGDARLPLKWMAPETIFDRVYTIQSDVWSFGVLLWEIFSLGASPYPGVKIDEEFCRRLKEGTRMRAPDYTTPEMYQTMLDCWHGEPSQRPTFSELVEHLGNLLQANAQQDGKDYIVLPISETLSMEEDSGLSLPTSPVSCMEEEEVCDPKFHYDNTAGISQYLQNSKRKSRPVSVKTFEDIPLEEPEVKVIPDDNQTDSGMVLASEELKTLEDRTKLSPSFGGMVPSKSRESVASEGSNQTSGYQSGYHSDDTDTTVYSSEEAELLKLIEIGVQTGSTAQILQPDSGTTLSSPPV

MOLM-13 cells = assay: Human acute myeloid leukemia subcutaneous xenograft tumor model (MOLM-13); type: in vivo, mice
From the text: Mice were inoculated subcutaneously with MOLM-13 cells and a human acute myeloid leukemia subcutaneous xenograft tumor model was established. After 14 days of intragastric administration of the crystalline form AB to animals, tumors were taken and tumor volume data were collected.

NCI-H1703 cells = assay: Lung cancer subcutaneous xenotransplantation tumor model (NCI-H1703); type: in vivo, mice; settings: for Tumor Inhibition Rate %: intragastric, 28 days, below line 'Micronization'
From the text: NCIH-1703 cells were inoculated subcutaneously in mice to establish a lung cancer subcutaneous xenotransplantation tumor model. After 28 days of intragastric administration of the crystalline form AB to animals, tumors were taken and tumor volume data were collected.

[2] = Bioavailability analysis (pharmacokinetics) of crystalline forms in mice; type: in vivo; set-up: AUClast / AUCInf: concentration or dose not given beside the values; settings: gavage, suspension in CMC-Na, mean
Procedure: Drug samples of different crystalline forms of the compound 1 were added to a solution of 1 CMC-Na respectively to prepare suspensions, which were administrated to mice by gavage. Drug samples of the different crystalline forms of the compound 1 were prepared into solutions in DMSO/PEG400/water and administered intravenously to mice. After drug administration, blood samples were collected from the dorsal vein of foot at different time points. After anticoagulation with heparin sodium, plasma was extracted by centrifugation. Plasma samples were analyzed by LC-MS/MS to obtain plasma drug concentrations. Pharmacokinetic parameters were calculated by WinNonlin (Phoenix™) The results of the bioavailability analysis for the crystalline form AB, the crystalline form M, and the crystalline form F are presented in Table 6.

[3] = Accelerated stability test of the crystalline form M and the crystalline form F (40±2° C., RH 75±5%, open petri dish); type: physicochemical; settings: for Change in purity in 3 months' accelerated stability test: before and after grinding/pulverization
Procedure: Accelerated stability test: the crystalline form M of the compound 1 was contained in a petri dish, which was placed in an open manner in a closed container (desiccator) with a relative humidity of 75±5%; the desiccator was placed in an incubator at 40±2° C. for 3 months, and small samples were taken out at 0, 1, 2, 3 months respectively for detection.
Accelerated stability test: the crystalline form F of the compound 1 was contained in a petri dish, which was put in an open manner in a closed container (desiccator) with a relative humidity of 75±5%; the desiccator was placed in an incubator at 40±2° C. for 3 months; small samples were taken out at 0, 1, 2 and 3 months respectively for detection.

[4] = 1 month, open, 40±2° C., RH 75±5%
[5] = 2 months, open, 40±2° C., RH 75±5%
[6] = 3 months, open, 40±2° C., RH 75±5%

In the case of `COc1cc2c(Oc3ccc(NC(=O)C4(C(=O)Nc5ccc(F)cc5)CC4)cc3F)ccnc2cc1OCCCCCC(=O)O` [crystalline form AB, 6-[[4-[2-fluoro-4-[[1-[(4-fluorophenyl)aminoformyl]cyclopropanecarbonyl]amino]phenoxy]-6-methoxy-7-quinolyl]oxy] hexanoic acid], the “Purity (HPLC method) Open” value ([1]; 1 month) is reported as 99.36%, the “Purity (HPLC method) Sealed” value ([1]; 1 month) is reported as 99.32% and the “Purity (HPLC method) Open” value ([1]; 2 months) is reported as 99.35%. For the same molecule, the “Purity (HPLC method) Sealed” value ([1]; 2 months) was 99.34%, the “Purity (HPLC method) Open” value ([1]; 7 months) was 99.36% and the “Purity (HPLC method) Sealed” value ([1]; 7 months) was 99.32%. For the same molecule, the “Stability (conclusion in words)” value ([1]; accelerated stability test, 7 months) was “good stability”, the “Purity (HPLC method)” value ([1]; storage time 0 month) was 99.35% and the IC50 (AXL) was 0.24 nM. The IC50 (VEGF-R2) was 0.38 nM, the “Tumor Inhibition Rate %” value (MOLM-13 cells; 1.5 mg/kg, intragastric, 14 days) was 51.5% and the “Tumor growth” value (MOLM-13 cells; 3 mg/kg) was “significantly inhibited tumor growth”. For the same molecule, the “Tumor Inhibition Rate %” value (MOLM-13 cells; 3 mg/kg, intragastric, 14 days) was 81.9%, the “Tumor growth” value (MOLM-13 cells; 6 mg/kg or 6.25 mg/kg) was “inhibited tumor growth, and the tumor disappeared in some mice on day 14 after the administration” and the “Tumor Inhibition Rate %” value (MOLM-13 cells; 6 mg/kg, intragastric, 14 days) was 96.7%. The “Tumor Inhibition Rate %” value (MOLM-13 cells; 6.25 mg/kg, intragastric, 14 days) was 95.6%, the “median effective dose EC50” value (MOLM-13 cells; intragastric, 14 days) was 1.5 mg/kg and the “Tumor growth” value (NCI-H1703 cells; 6.25 mg/kg) was “significantly inhibit tumor growth”. For the same molecule, the “Tumor Inhibition Rate %” value (NCI-H1703 cells; 6.25 mg/kg) was 87.0%, the “Tumor growth” value (NCI-H1703 cells; 12.5 mg/kg) was “significantly inhibit tumor growth and tumor regression was observed for some mice” and the “Tumor growth” value (NCI-H1703 cells; 12.5 mg/kg, 25 mg/kg and 50 mg/kg) was “significantly inhibited tumor growth and the number of tumor regression cases presented a gradual increase”. For the same molecule, the “Tumor Inhibition Rate %” value (NCI-H1703 cells; 12.5 mg/kg) was 94.7%, the “Tumor Inhibition Rate %” value (NCI-H1703 cells; 25 mg/kg) was 98.5% and the “Tumor Inhibition Rate %” value (NCI-H1703 cells; 50 mg/kg) was 99.2%. For the same molecule, the AUCInf [2] was 2414 ng·h/mL, the “AUC_% Extrap” value [2] was 1.19% and the AUClast [2] was 2399 ng·h/mL. It also gave an AUClast/D [2] of 240 ng·h/mL per mg/kg, a Cmax [2] of 930 ng/mL and an MRT [2] of 1.91 h. For the same molecule, the T1/2 [2] was 0.86 h and the Tmax ([2]; mouse, plasma, po, 10 mg/kg, read-out: Tmax) was 1.33 h.

In the case of `COc1cc2c(Oc3ccc(NC(=O)C4(C(=O)Nc5ccc(F)cc5)CC4)cc3F)ccnc2cc1OCCCCCC(=O)O` [crystalline form M, 6-[[4-[2-fluoro-4-[[1-[(4-fluorophenyl)aminoformyl]cyclopropanecarbonyl]amino]phenoxy]-6-methoxy-7-quinolyl]oxy] hexanoic acid], the “Purity (HPLC method) After grinding” value ([3]; 0 month) is reported as 99.22%, the “Purity (HPLC method) Before grinding” value ([3]; 0 month) is reported as 99.21% and the “Purity (HPLC method) After grinding” value [3, 4] is reported as 99.37%. The “Purity (HPLC method) Before grinding” value [3, 4] was 99.36%, the “Purity (HPLC method) After grinding” value [3, 5] was 99.17% and the “Purity (HPLC method) Before grinding” value [3, 5] was 99.16%. The “Purity (HPLC method) After grinding” value [3, 6] was 99.19%, the “Purity (HPLC method) Before grinding” value [3, 6] was 99.19% and the “Change in purity in 3 months' accelerated stability test” value [3] was “substantially no change in purity”. The AUCInf [2] was 1110 ng·h/mL, the “AUC_% Extrap” value [2] was 39% and the AUClast [2] was 581 ng·h/mL. For the same molecule, the AUClast/D [2] was 58.1 ng·h/mL per mg/kg, the Cmax [2] was 200 ng/mL and the MRT [2] was 5.65 h. For the same molecule, the T1/2 [2] was 3.61 h and the Tmax [2] was 0.917 h.

With `COc1cc2c(Oc3ccc(NC(=O)C4(C(=O)Nc5ccc(F)cc5)CC4)cc3F)ccnc2cc1OCCCCCC(=O)O` [crystalline form F, 6-[[4-[2-fluoro-4-[[1-[(4-fluorophenyl)aminoformyl]cyclopropanecarbonyl]amino]phenoxy]-6-methoxy-7-quinolyl]oxy] hexanoic acid] the “Purity (HPLC method) After grinding” value ([3]; 0 month) was 99.13%, the “Purity (HPLC method) Before grinding” value ([3]; 0 month) was 99.13% and the “Purity (HPLC method) After grinding” value [3, 4] was 99.32%. For the same molecule, the “Purity (HPLC method) Before grinding” value [3, 4] was 99.33%, the “Purity (HPLC method) After grinding” value [3, 5] was 99.07% and the “Purity (HPLC method) Before grinding” value [3, 5] was 99.09%. For the same molecule, the “Purity (HPLC method) After grinding” value [3, 6] was 99.06%, the “Purity (HPLC method) Before grinding” value [3, 6] was 99.07% and the “Change in purity in 3 months' accelerated stability test” value [3] was “substantially no change in purity”. The AUCInf [2] was 675 ng·h/mL, the “AUC_% Extrap” value [2] was 22.7% and the AUClast [2] was 505 ng·h/mL. For the same molecule, the AUClast/D [2] was 50.5 ng·h/mL per mg/kg, the Cmax [2] was 201 ng/mL and the MRT [2] was 3.05 h. For the same molecule, the T1/2 [2] was 1.7 h and the Tmax [2] was 1.5 h.
